Results taken from US20140155445A1, “Compounds and Methods for Treating Cancer and Diseases of the Central Nervous System” (Osta Biotechnologies Inc., priority 2007, published 2014).
Counter-ions that a name gives are not always drawn. Like-named read-outs stand apart in the source and are kept apart here.

Assays:
HO-1 (rat spleen) = target: T1, HO-1 (rat spleen) (Rattus norvegicus, UniProt P06762); test: HO enzymatic activity in rat spleen microsomal fraction (CO formed from methemalbumin, gas chromatography); assay type: biochemical
T1 construct: Spleen microsomes were used as a source of HO-1; from tissue; host or cells: spleen microsomal fraction of adult male Sprague-Dawley rats
T1 sequence (P06762 1-289): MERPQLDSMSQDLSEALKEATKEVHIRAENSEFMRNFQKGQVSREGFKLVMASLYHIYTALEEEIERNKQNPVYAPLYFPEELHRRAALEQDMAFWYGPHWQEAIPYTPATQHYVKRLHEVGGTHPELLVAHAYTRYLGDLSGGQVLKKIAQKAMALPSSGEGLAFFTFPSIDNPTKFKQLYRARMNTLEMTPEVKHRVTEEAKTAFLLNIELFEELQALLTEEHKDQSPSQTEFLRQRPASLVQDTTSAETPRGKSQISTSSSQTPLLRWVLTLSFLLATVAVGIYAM

HO-2 (rat brain) = target: T2, HO-2 (rat brain) (Rattus norvegicus, UniProt P23711); test: HO enzymatic activity in rat brain microsomal fraction (CO formed from methemalbumin, gas chromatography); assay type: biochemical
T2 construct: brain microsomes were used as a source of HO-2; from tissue; host or cells: brain microsomal fraction of adult male Sprague-Dawley rats
T2 sequence (P23711 1-315): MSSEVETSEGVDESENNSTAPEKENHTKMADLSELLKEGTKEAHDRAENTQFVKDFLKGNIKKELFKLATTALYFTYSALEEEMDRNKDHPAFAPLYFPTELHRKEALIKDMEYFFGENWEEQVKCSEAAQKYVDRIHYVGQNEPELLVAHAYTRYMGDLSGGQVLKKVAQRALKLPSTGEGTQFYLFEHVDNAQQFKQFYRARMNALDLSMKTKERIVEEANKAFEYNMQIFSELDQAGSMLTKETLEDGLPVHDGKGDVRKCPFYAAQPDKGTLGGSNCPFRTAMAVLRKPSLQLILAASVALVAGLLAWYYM

[1] = rat spleen microsomes, average ± standard deviation of replicate experiments, read-out: IC50 HO-1 (rat spleen)/μM
[2] = rat brain microsomes, average ± standard deviation of replicate experiments, read-out: IC50 HO-2 (rat brain)/μM

Structure (SMILES) | IC50 (HO-1 (rat spleen); [1]) [µM] | IC50 (HO-2 (rat brain); [2]) [µM] | IC50 (HO-1 (rat spleen)) [µM] | IC50 (HO-2 (rat brain)) [µM]
C[C@@H]1CO[C@@](CCc2ccc(Cl)cc2)(Cn2ccnc2)O1 [(2R,4R)-2-[2-(4-chlorophenyl)ethyl]-2-[(1H-imidazol-1-yl)methyl]-4-methyl-1,3-dioxolane hydrochloride] | 0.8 ± 0.2 | 305 ± 25 | – | –
C[C@@H]1CO[C@@](CCc2ccccc2)(Cn2ccnc2)O1 [(2R,4R)-2-[2-(4-phenyl)ethyl]-2-[(1H-imidazol-1-yl)methyl]-4-methyl-1,3-dioxolane hydrochloride] | 2 ± 1 | > 43 | – | –
Clc1ccc(CC[C@@]2(Cn3ccnc3)OC[C@@H](CSc3ccc4ccccc4c3)O2)cc1 [(2R,4S)-1-[2-[2-(4-chloro-phenyl)-ethyl]-4-(naphthalen-2-ylsulfanylmethyl)-[1,3]dioxolan-2-ylmethyl]-1H-imidazole hydrochloride] | 0.9 ± 0.1 | 30 ± 4 | – | –
Clc1ccc(CC[C@@]2(Cn3ccnc3)OC[C@@H](CSc3ccccc3Br)O2)cc1 [(2R,4S)-1-{4-(2-bromo-phenylsulfanylmethyl)-2-[2-(4-chloro-phenyl)-ethyl]-[1,3]dioxolan-2-ylmethyl}-1H-imidazole hydrochloride] | 6 ± 1 | 12.3 ± 0.5 | – | –
Clc1ccc(CC[C@@]2(Cn3ccnc3)OC[C@@H](CSc3cccc(Br)c3)O2)cc1 [(2R,4S)-1-{4-(3-bromo-phenylsulfanylmethyl)-2-[2-(4-chloro-phenyl)-ethyl]-[1,3]dioxolan-2-ylmethyl}-1H-imidazole hydrochloride] | 5 ± 2 | 22 ± 9 | – | –
ClC[C@@H]1CO[C@@](CCc2ccc(Cl)cc2)(Cn2ccnc2)O1 [(2R,4S)-1-{4-chloromethyl-2-[2-(4-chloro-phenyl)-ethyl]-[1,3]dioxolan-2-ylmethyl}-1H-imidazole hydrochloride] | 3.5 ± 0.1 | 122 ± 30 | – | –
CSC[C@@H]1CO[C@@](CCc2ccc(Cl)cc2)(Cn2ccnc2)O1 [(2R,4S)-2-[2-(4-chlorophenyl)ethyl]-2-[(1H-imidazol-1-yl)methyl]-4-[(methylthio)methyl]-1,3-dioxolane hydrochloride] | 9 ± 2 | 19 ± 7 | – | –
Cc1ccc(S(=O)(=O)OC[C@@H]2CO[C@@](CCc3ccc(Cl)cc3)(Cn3ccnc3)O2)cc1 [(2R,4S)-2-[2-(4-chlorophenyl)ethyl]-2-[(1H-imidazol-1-yl)methyl]-4-[(p-toluenesulfonyloxy)meth-yl]-1,3-dioxolane] | – | – | 6 ± 2 | 3 ± 1
Clc1ccc(CC[C@@]2(Cn3ccnc3)OC[C@@H](CSc3ccccc3)O2)cc1 [(2R,4S)-2-[2-(4-chlorophenyl)ethyl]-2-[(1H-imidazol-1-yl)methyl]-4-[(phenylthio)methyl]-1,3-dioxolane hydrochloride] | 1.03 ± 0.07 | 34 ± 12 | – | –
Nc1ccccc1SC[C@@H]1CO[C@@](CCc2ccc(Cl)cc2)(Cn2ccnc2)O1 [(2R,4S)-2-[2-(4-chlorophenyl)ethyl]-2-[(1H-imidazol-1-yl)methyl]-4-[{(2-aminophenyl)thio}meth-yl]-1,3-dioxolane dihydrochloride] | 4 ± 2 | 42 ± 28 | – | –
Nc1cccc(SC[C@@H]2CO[C@@](CCc3ccc(Cl)cc3)(Cn3ccnc3)O2)c1 [(2R,4S)-2-[2-(4-chlorophenyl)ethyl]-2-[(1H-imidazol-1-yl)methyl]-4-[{(3-aminophenyl]-4-[{(3-aminophenyl)thio}meth-yl]-1,3-dioxolane hydrochloride] | 4 ± 2 | 6 ± 1 | – | –
Nc1ccc(SC[C@@H]2CO[C@@](CCc3ccc(Cl)cc3)(Cn3ccnc3)O2)cc1 [(2R,4S)-2-[2-(4-chlorophenyl)ethyl]-2-[(1H-imidazol-1-yl)methyl]-4-[{(4-aminophenyl)thio}meth-yl]-1,3-dioxolane hydrochloride] | 0.33 ± 0.07 | 8 ± 1 | – | –
Clc1ccc(CC[C@@]2(Cn3ccnc3)OC[C@@H](CSc3ccc(Br)cc3)O2)cc1 [(2R,4S)-2-[2-(4-chlorophenyl)ethyl]-2-[(1H-imidazol-1-yl)methyl]-4-[{(4-bromophenyl)thio}meth-yl]-1,3-dioxolane hydrochloride] | 2.1 ± 0.9 | 2.4 ± 0.1 | – | –
Clc1ccc(CC[C@@]2(Cn3ccnc3)OC[C@@H](CSc3ccc(Cl)cc3)O2)cc1 [(2R,4S)-2-[2-(4-chlorophenyl)ethyl]-2-[(1H-imidazol-1-yl)methyl]-4-[{(4-chlorophenyl)thio}meth-yl]-1,3-dioxolane hydrochloride] | 2.8 ± 0.4 | 12 ± 5 | – | –
Fc1ccc(SC[C@@H]2CO[C@@](CCc3ccc(Cl)cc3)(Cn3ccnc3)O2)cc1 [(2R,4S)-2-[2-(4-chlorophenyl)ethyl]-2-[(1H-imidazol-1-yl)methyl]-4-[{(4-fluorophenyl)thio}meth-yl]-1,3-dioxolane hydrochloride] | 2.2 ± 0.2 | 5 ± 4 | – | –
Oc1ccc(SC[C@@H]2CO[C@@](CCc3ccc(Cl)cc3)(Cn3ccnc3)O2)cc1 [(2R,4S)-2-[2-(4-chlorophenyl)ethyl]-2-[(1H-imidazol-1-yl)methyl]-4-[{(4-hydroxyphenyl)thio}methyl]-1,3-dioxolane] | 1.59 ± 0.03 | 7 ± 2 | – | –

Structure (SMILES) | IC50 (HO-1 (rat spleen); [1]) [µM] | IC50 (HO-2 (rat brain); [2]) [µM] | IC50 (HO-1 (rat spleen)) [µM] | IC50 (HO-2 (rat brain)) [µM]
COc1ccc(SC[C@@H]2CO[C@@](CCc3ccc(Cl)cc3)(Cn3ccnc3)O2)cc1 [(2R,4S)-2-[2-(4-chlorophenyl)ethyl]-2-[(1H-imidazol-1-yl)methyl]-4-[{(4-methoxyphenyl)thio}methyl]-1,3-dioxolane hydrochloride] | 0.7 ± 0.3 | 2.5 ± 0.4 | – | –
O=[N+]([O-])c1ccc(SC[C@@H]2CO[C@@](CCc3ccc(Cl)cc3)(Cn3ccnc3)O2)cc1 [(2R,4S)-2-[2-(4-chlorophenyl)ethyl]-2-[(1H-imidazol-1-yl)methyl]-4-[{(4-nitrophenyl)thio}meth-yl]-1,3-dioxolane hydrochloride] | 6 ± 2 | 19 ± 2 | – | –
Clc1ccc(CC[C@@]2(Cn3ccnc3)OC[C@@H](CSc3ccncc3)O2)cc1 [(2R,4S)-2-[2-(4-chlorophenyl)ethyl]-2-[(1H-imidazol-1-yl)methyl]-4-[{(4-pyridinyl)thio}methyl]-1,3-dioxolane dihydrochloride] | 25 ± 5 | 69 ± 8 | – | –
C[C@H]1CO[C@@](CCc2ccc(Cl)cc2)(Cn2ccnc2)O1 [(2R,4S)-2-[2-(4-chlorophenyl)ethyl]-2-[(1H-imidazol-1-yl)methyl]-4-methyl-1,3-dioxolane hydrochloride] | 2.6 ± 0.4 | – | – | > 100
FC(F)(F)c1ccc(SC[C@@H]2CO[C@@](CCc3ccc(Cl)cc3)(Cn3ccnc3)O2)nc1 [(2R,4S)-2-[2-(4-chlorophenyl)ethyl]-2-[(1H-imidazol-1-yl)methyl]-4[{(5-trifluoromethyl-pyridin-2-yl)ethio}methyl]-1,3-dioxolane hydrochloride] | 2.1 ± 0.6 | 16 ± 8 | – | –
Cc1ccc(S(=O)(=O)OC[C@H]2CO[C@](CCc3ccc(Cl)cc3)(Cn3ccnc3)O2)cc1 [(2S,4R)-2-[2-(4-chlorophenyl)ethyl]-2-[(1H-imidazol-1-yl)methyl]-4-[(p-toluenesulfonyloxy)meth-yl]-1,3-dioxolane] | – | – | 17 ± 1 | 120 ± 34
Nc1ccccc1SC[C@H]1CO[C@](CCc2ccc(Cl)cc2)(Cn2ccnc2)O1 [(2S,4R)-2-[2-(4-chlorophenyl)ethyl]-2-[(1H-imidazol-1-yl)methyl]-4-[{(2-aminophenyl)thio}meth-yl]-1,3-dioxolane hydrochloride] | ~4.2 | > 100 | – | –
C[C@@H]1CO[C@](CCc2ccc(Cl)cc2)(Cn2ccnc2)O1 [(2S,4R)-2-[2-(4-chlorophenyl)ethyl]-2-[(1H-imidazol-1-yl)methyl]-4-methyl-1,3-dioxolane hydrochloride] | 20 ± 4 | > 100 | – | –
Clc1ccc(CC[C@]2(Cn3ccnc3)OC[C@@H](CSc3ccc4ccccc4c3)O2)cc1 [(2S,4S)-2-[2-(4-chlorophenyl)ethyl]-2-[(1H-imidazol-1-yl)methyl]-4-[{(2-naphthyl)thio}methyl]-1,3-dioxolane hydrochloride] | 14 ± 2 | 62 ± 7 | – | –
C[C@H]1CO[C@](CCc2ccc(Cl)cc2)(Cn2ccnc2)O1 [(2S,4S)-2-[2-(4-chlorophenyl)ethyl]-2-[(1H-imidazol-1-yl)methyl]-4-methyl-1,3-dioxolane hydrochloride] | 12 ± 4 | > 100 | – | –
COC(=O)Nc1nc2ccc([S+]([O-])c3ccccc3)cc2[nH]1 (centres unmarked) [(5-benzenesulfinyl-1H-benzoimidazol-2-yl)-carbamic acid methyl ester] | 115 | > 100 | – | –
c1ccc2[nH]cnc2c1 [Benzimidazole, reference compound] | > 100 | > 100 | – | –
COC(=O)Nc1nc2ccc(Sc3ccccc3)cc2[nH]1 [Fenbendazol, reference compound] | > 100 | > 100 | – | –
COC(=O)Nc1nc2cc(C(=O)c3ccc(F)cc3)ccc2[nH]1 [Flubendazol, reference compound] | > 100 | > 100 | – | –
COC(=O)Nc1nc2ccc(C(=O)c3cccs3)cc2[nH]1 [Nocodazole, reference compound] | > 100 | > 100 | – | –
